{
  "source": "patent US20130072424A1",
  "about": "“COMPOUNDS AND METHODS FOR PEPTIDE RIBONUCLEIC ACID CONDENSATE PARTICLES FOR RNA THERAPEUTICS” (MARINA BIOTECH, INC., priority 2005, published 2013)",
  "key": {"[1]": {"tested_on": "mouse tail fibroblast (MTF) cells", "assay": "siRNA cell-uptake assay and MFI (Cy5-conjugated siRNA, flow cytometry), Examples 14-16", "format": "cell-based", "details": "PN73 mutant series", "protocol": "As described above, the cell-uptake assay determines the number of cells that receive Cy5-conjugated siRNA when complexed with a peptide. siRNA cell-uptake was assessed by flow cytometry (refer to Example 2 for details). Uptake was expressed as a percentage calculated by dividing the number of cells containing Cy5-conjugated siRNA by the total number of transfected and untransfected cells in culture. Mean Fluorescence Intensity (MFI) was measured by flow cytometry and determined the amount of Cy5-conjugated siRNA found within cells. The MFI value directly correlates with the amount of Cy5-conjugated siRNA within the cell, thus, a higher MFI value indicates a greater number of Cy5-conjugated siRNA within the cells.\nThe siRNA cell-uptake assay and MFI measurements were performed as described previously in Examples 2 and 3. […]"}, "in vitro": {"assay": "in vitro", "details": "mouse, mouse tail fibroblast (MTF) cells", "method": "Fluorescence activated cell sorting (FACS) analysis were performed using Beckman Coulter FC500 cell analyzer (Fullerton, Calif.). The instrument was adjusted according to the fluorescence probes used (FAM or Cy5 for siRNA and FITC and PE for CD14). Propidium iodide (Fluka, St Louis) and AnnexinV (R&D systems, Minneapolis) were used as indicators for cell viability and cytotoxicity. A brief step-by-step protocol is detailed below. • (a) After exposure to the complex of siRNA/peptide, cells were incubated for at least 3 hours. • (b) Wash cells with 200 μl PBS. • (c) Detach cells with 15 μl TE, incubate at 370 C. • (d) Re-suspend cells in five wells with 30 μl FACS solution (PBS with 0.5% BSA, and 0.1% sodium Azide). • (e) Combine all five wells into a tube. • (f) Add PI (Propidium iodide) 5 μl into each tube. • (g) Analyze the cells with fluorescence activated cell sorting (FCAS) according to manufacturer's instructions.\nFor siRNA uptake analysis, cells were washed with PBS, treated with trypsin (attached cells only), and then analyzed by flow cytometry. […] In order to differentiate the cellular uptake from the membrane insertion of fluorescence labeled siRNA, trypan blue was used to quench the fluorescence on the cell membrane surface.\nFITC-tagged peptides were diluted in Opti-MEM® media (Invitrogen) for about 5 minutes at room temperature and then added to cells. Cells were transfected for 3 hours at and washed with PBS, treated with trypsin, and then analyzed by flow cytometry. Cell viability was determined as above. Cellular uptake was distinguished from the membrane insertion using trypan blue to quench any fluorescence on the cell membrane surface."}},
  "note": "Ends that are not written are not given here.",
  "data": [
    {"compound": "KGSFKAVTKAQKKFGKKRKRSRKSFSVYVYKVLKQ-NH2 [PN729]", "values": [
      {"measurement": "% siRNA Cell-Uptake", "setting": "[1]; peptide 0.63 μM", "result": 61, "unit": "%"},
      {"measurement": "siRNA Cy5 MFI", "setting": "[1]; peptide 0.63 μM", "result": 4},
      {"measurement": "% siRNA Cell-Uptake", "setting": "[1]; peptide 1.25 μM", "result": 69, "unit": "%"},
      {"measurement": "siRNA Cy5 MFI", "setting": "[1]; peptide 1.25 μM", "result": 10},
      {"measurement": "% siRNA Cell-Uptake", "setting": "[1]; peptide 2.5 μM", "result": 79, "unit": "%"},
      {"measurement": "siRNA Cy5 MFI", "setting": "[1]; peptide 2.5 μM", "result": 16},
      {"measurement": "% siRNA Cell-Uptake", "setting": "[1]; peptide 5 μM", "result": 86, "unit": "%"},
      {"measurement": "siRNA Cy5 MFI", "setting": "[1]; peptide 5 μM", "result": 30},
      {"measurement": "viability at 0.63 µM", "setting": "in vitro", "result": 82, "unit": "%"},
      {"measurement": "viability at 1.25 µM", "setting": "in vitro", "result": 91, "unit": "%"},
      {"measurement": "viability at 2.5 µM", "setting": "in vitro", "result": 92, "unit": "%"},
      {"measurement": "viability at 5 µM", "setting": "in vitro", "result": 90, "unit": "%"}
    ]},
    {"compound": "CC(C)C[C@H](NC(=O)[C@@H](NC(=O)[C@H](CCCCN)NC(=O)[C@H](Cc1ccc(O)cc1)NC(=O)[C@@H](NC(=O)[C@H](Cc1ccc(O)cc1)NC(=O)[C@@H](NC(=O)[C@H](CO)NC(=O)[C@H](Cc1ccc(O)cc1)NC(=O)[C@H](CO)NC(=O)[C@H](Cc1c[nH]c2ccccc12)NC(=O)[C@H](CCCCN)NC(=O)[C@H](CCCNC(=N)N)NC(=O)[C@H](CO)NC(=O)[C@H](CCCNC(=N)N)NC(=O)[C@H](CCCCN)NC(=O)[C@H](CCCNC(=N)N)NC(=O)[C@H](CCCCN)NC(=O)[C@H](CCCCN)NC(=O)CNC(=O)[C@H](CC(=O)O)NC(=O)[C@H](CCCCN)NC(=O)[C@H](CCCCN)NC(=O)[C@H](CCC(N)=O)NC(=O)[C@H](C)NC(=O)[C@H](CCCCN)NC(=O)[C@@H](NC(=O)[C@@H](NC(=O)[C@H](C)NC(=O)[C@H](CCCCN)NC(=O)[C@H](CCCCN)NC(=O)[C@H](CO)NC(=O)CNC(=O)[C@@H](N)CCCCN)C(C)C)[C@@H](C)O)C(C)C)C(C)C)C(C)C)C(=O)N[C@@H](CCCCN)C(=O)N[C@@H](CCC(N)=O)C(N)=O", "note": "[PN645]", "values": [
      {"measurement": "% siRNA Cell-Uptake", "setting": "[1]; peptide 0.63 μM", "result": 68, "unit": "%"},
      {"measurement": "siRNA Cy5 MFI", "setting": "[1]; peptide 0.63 μM", "result": 5},
      {"measurement": "% siRNA Cell-Uptake", "setting": "[1]; peptide 1.25 μM", "result": 70, "unit": "%"},
      {"measurement": "siRNA Cy5 MFI", "setting": "[1]; peptide 1.25 μM", "result": 11},
      {"measurement": "% siRNA Cell-Uptake", "setting": "[1]; peptide 2.5 μM", "result": 78, "unit": "%"},
      {"measurement": "siRNA Cy5 MFI", "setting": "[1]; peptide 2.5 μM", "result": 21},
      {"measurement": "% siRNA Cell-Uptake", "setting": "[1]; peptide 5 μM", "result": 88, "unit": "%"},
      {"measurement": "siRNA Cy5 MFI", "setting": "[1]; peptide 5 μM", "result": 28},
      {"measurement": "viability at 0.63 µM", "setting": "in vitro", "result": 84, "unit": "%"},
      {"measurement": "viability at 1.25 µM", "setting": "in vitro", "result": 89, "unit": "%"},
      {"measurement": "viability at 2.5 µM", "setting": "in vitro", "result": 90, "unit": "%"},
      {"measurement": "viability at 5 µM", "setting": "in vitro", "result": 90, "unit": "%"}
    ]},
    {"compound": "CC(C)C[C@H](NC(=O)[C@@H](NC(=O)[C@H](CCCCN)NC(=O)[C@H](Cc1ccc(O)cc1)NC(=O)[C@@H](NC(=O)[C@H](Cc1ccc(O)cc1)NC(=O)[C@@H](NC(=O)[C@H](Cc1c[nH]c2ccccc12)NC(=O)[C@H](Cc1ccc(O)cc1)NC(=O)[C@H](CO)NC(=O)[C@H](CCC(=O)O)NC(=O)[C@H](CCCCN)NC(=O)[C@H](CCCNC(=N)N)NC(=O)[C@H](CO)NC(=O)[C@H](CCCNC(=N)N)NC(=O)[C@H](CCCCN)NC(=O)[C@H](CCCNC(=N)N)NC(=O)[C@H](CCCCN)NC(=O)[C@H](CCCCN)NC(=O)CNC(=O)[C@H](CC(=O)O)NC(=O)[C@H](CCCCN)NC(=O)[C@H](CCCCN)NC(=O)[C@H](CCC(N)=O)NC(=O)[C@H](C)NC(=O)[C@H](CCCCN)NC(=O)[C@@H](NC(=O)[C@@H](NC(=O)[C@H](C)NC(=O)[C@H](CCCCN)NC(=O)[C@H](CCCCN)NC(=O)[C@H](CO)NC(=O)CNC(=O)[C@@H](N)CCCCN)C(C)C)[C@@H](C)O)C(C)C)C(C)C)C(C)C)C(=O)N[C@@H](CCCCN)C(=O)N[C@@H](CCC(N)=O)C(N)=O", "note": "[PN644]", "values": [
      {"measurement": "% siRNA Cell-Uptake", "setting": "[1]; peptide 0.63 μM", "result": 67, "unit": "%"},
      {"measurement": "siRNA Cy5 MFI", "setting": "[1]; peptide 0.63 μM", "result": 4},
      {"measurement": "% siRNA Cell-Uptake", "setting": "[1]; peptide 1.25 μM", "result": 71, "unit": "%"},
      {"measurement": "siRNA Cy5 MFI", "setting": "[1]; peptide 1.25 μM", "result": 8},
      {"measurement": "% siRNA Cell-Uptake", "setting": "[1]; peptide 2.5 μM", "result": 70, "unit": "%"},
      {"measurement": "siRNA Cy5 MFI", "setting": "[1]; peptide 2.5 μM", "result": 24},
      {"measurement": "% siRNA Cell-Uptake", "setting": "[1]; peptide 5 μM", "result": 83, "unit": "%"},
      {"measurement": "siRNA Cy5 MFI", "setting": "[1]; peptide 5 μM", "result": 37},
      {"measurement": "viability at 0.63 µM", "setting": "in vitro", "result": 88, "unit": "%"},
      {"measurement": "viability at 1.25 µM", "setting": "in vitro", "result": 90, "unit": "%"},
      {"measurement": "viability at 2.5 µM", "setting": "in vitro", "result": 86, "unit": "%"},
      {"measurement": "viability at 5 µM", "setting": "in vitro", "result": 87, "unit": "%"}
    ]}
  ]
}
